The record followed here is ChEMBL document CHEMBL1140922, “Detection of metabolite changes in C6 glioma cells cultured with antimitotic oleyl glycoside by 1H MAS NMR” (2009).

Calls of active or inactive are those of the source. The calls are words filed in the database; no cut-off is given here.

In assay [1] the test system is C6. Kind of assay: Effect on metabolic changes in rat C6 cells assessed as increase in choline signal at 10 uM after 48 hrs by NMR analysis. It is filed as functional.
Assay [2] has as its system C6. Briefly: Induction of apoptosis in rat C6 cells assessed inhibition of cell division. It is filed as functional, cell-based.
In assay [3] the test system is C6. Kind of assay: Induction of apoptosis in rat C6 cells assessed cell death at > 40 uM. It counts as functional, cell-based.
For assay [4], the system named is C6. Briefly: Effect on metabolic changes in rat C6 cells assessed as ratio of CoA to creatine at 10 uM after 24 hrs by NMR analysis. It counts as functional.
Assay [5] deals with C6. Briefly: Induction of apoptosis in rat C6 cells assessed as DNA fragmentation at 40 uM after 19 hrs by electrophoresis. It is filed as functional, cell-based.
Assay [6] deals with C6. Briefly: Cytotoxicity against rat C6 cells assessed as necrotic cells at 80 uM after 19 hrs. It counts as functional, cell-based.
Assay [7] has as its system C6. Briefly: Induction of apoptosis in rat C6 cells assessed as DNA fragmentation at 80 uM after 19 hrs by electrophoresis. It is filed as functional, cell-based.

In the case of `CCCCCCCC/C=C\CCCCCCCCO[C@H]1O[C@H](CO)[C@@H](O)[C@H](O)[C@H]1NC(C)=O`, in the assay with C6 [1], the Activity was 2.47. Further, the outcome in the assay with C6 [2], with C6 [3], with C6 [5] and in the assay with C6 [7] was Active. Besides, the Ratio in the assay with C6 [4] came to 0.32. Further, the result in the assay on C6 [6] was inactive.
